Measurements as given in patent publication US20240150377A1, “MODULATORS OF CYSTIC FIBROSIS TRANSMEMBRANE CONDUCTANCE REGULATOR” (VERTEX PHARMACEUTICALS INCORPORATED, priority 2020, published 2024).
Like-named read-outs stand apart in the source and are kept apart here.

Biological target: T1, CFTR (Homo sapiens, UniProt P13569, DEL508-508)
T1 construct: endogenous in cells; host or cells: primary human bronchial epithelial cells from CF subjects (F508del/MF-HBE), differentiated at air-liquid interface
T1 sequence (P13569 with tags, fused parts or gaps DEL508-508): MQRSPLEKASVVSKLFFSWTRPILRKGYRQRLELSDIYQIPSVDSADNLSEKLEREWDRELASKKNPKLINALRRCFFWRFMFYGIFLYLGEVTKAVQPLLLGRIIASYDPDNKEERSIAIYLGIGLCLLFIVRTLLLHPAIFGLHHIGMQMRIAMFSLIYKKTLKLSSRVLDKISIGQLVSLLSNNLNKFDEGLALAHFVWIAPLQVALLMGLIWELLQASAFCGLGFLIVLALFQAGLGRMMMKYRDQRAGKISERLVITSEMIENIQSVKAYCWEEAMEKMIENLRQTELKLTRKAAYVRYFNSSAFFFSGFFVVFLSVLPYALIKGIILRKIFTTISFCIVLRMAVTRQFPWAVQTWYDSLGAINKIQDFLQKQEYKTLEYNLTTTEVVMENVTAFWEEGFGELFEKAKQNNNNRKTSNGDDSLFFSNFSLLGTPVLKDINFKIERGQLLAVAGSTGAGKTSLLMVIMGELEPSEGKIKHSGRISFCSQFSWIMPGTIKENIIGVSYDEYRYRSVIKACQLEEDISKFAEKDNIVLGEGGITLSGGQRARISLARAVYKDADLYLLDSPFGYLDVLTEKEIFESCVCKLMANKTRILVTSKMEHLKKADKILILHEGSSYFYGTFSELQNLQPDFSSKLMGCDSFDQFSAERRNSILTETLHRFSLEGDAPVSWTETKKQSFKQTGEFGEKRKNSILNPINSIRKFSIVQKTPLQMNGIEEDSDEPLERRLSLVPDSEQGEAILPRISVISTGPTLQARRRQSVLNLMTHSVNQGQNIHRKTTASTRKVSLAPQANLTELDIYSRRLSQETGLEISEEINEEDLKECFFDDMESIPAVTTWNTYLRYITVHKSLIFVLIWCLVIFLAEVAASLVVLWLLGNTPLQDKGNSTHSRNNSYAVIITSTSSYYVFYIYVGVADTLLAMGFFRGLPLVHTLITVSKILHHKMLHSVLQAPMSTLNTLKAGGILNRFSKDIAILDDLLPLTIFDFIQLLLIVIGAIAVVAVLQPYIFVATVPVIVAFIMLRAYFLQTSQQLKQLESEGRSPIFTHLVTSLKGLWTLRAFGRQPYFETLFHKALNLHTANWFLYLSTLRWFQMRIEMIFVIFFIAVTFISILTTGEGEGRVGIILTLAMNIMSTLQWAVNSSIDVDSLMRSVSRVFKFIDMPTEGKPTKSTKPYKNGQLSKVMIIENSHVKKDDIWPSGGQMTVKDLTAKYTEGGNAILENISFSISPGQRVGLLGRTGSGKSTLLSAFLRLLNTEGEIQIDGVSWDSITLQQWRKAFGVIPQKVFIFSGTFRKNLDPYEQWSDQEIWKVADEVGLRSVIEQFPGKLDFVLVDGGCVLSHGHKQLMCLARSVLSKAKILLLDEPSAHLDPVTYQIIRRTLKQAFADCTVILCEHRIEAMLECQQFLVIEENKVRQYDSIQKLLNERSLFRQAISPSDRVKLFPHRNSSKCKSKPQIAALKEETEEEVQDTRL
Test: HBE assay: Ussing chamber assay of CFTR-mediated short-circuit currents
Type: cell-based
Details: for EC50: read-out: HBE EC50
Method in brief: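 CFTR-mediated Isc (μA/cm²) equals the peak response to apical 20 μM forskolin minus the residual after a 20 μM each BPO/GlyH-101/CFTR inhibitor 172 cocktail, recorded in Ussing chambers at Vhold 0 mV, 37 °C, pH 7.4, with 30 μM apical amiloride. Cells were F508del/MF HBE cultures preincubated 18-24 h with corrector (concentration range or 10 μM) plus 1 μM ivacaftor in 20% human serum.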

[1] = Table 12, read-out: HBE Activity at 10 μM (%)
[2] = Table 12, read-out: HBE Max Activity (%)
[3] = Table 10, read-out: HBE Max activity (%)
[4] = Table 10, read-out: HBE activity at 10 (μM) (%)
[5] = Table 11, read-out: HBE Activity at 10 μM (%)
[6] = Table 13, read-out: HBE Max Activity (%)

Structure (SMILES) | Emax [3] | EC50 (Table 10) | also measured
Cc1cccc(C)c1-c1cc2nc(n1)NS(=O)(=O)c1cccc(c1)C(=O)N(Cc1cncc(N3CCC[C@@H]3C)c1)[C@H](CC(C)(C)C)CO2 [Compound 283] | – | – | activation at 10 µM [1]: > 600%
Cc1cccc(C)c1-c1cc2nc(n1)NS(=O)(=O)c1cccc(c1)C(=O)N(Cc1cncc(N3CCC[C@H]3C)c1)[C@H](CC(C)(C)C)CO2 [Compound 284] | – | – | activation at 10 µM [1]: > 600%
Cc1cccc(C)c1-c1cc2nc(n1)NS(=O)(=O)c1cccc(c1)C(=O)N(Cc1cncc(N3CCC(C)(C)C3)c1)[C@H](CC(C)(C)C)CO2 [Compound 285] | – | – | EC50 (Table 12): < 1 µM; Emax [2]: > 60%
Cc1cccc(C)c1-c1cc2nc(n1)NS(=O)(=O)c1cccc(c1)C(=O)N(Cc1cncc(C3CCCCC3)c1)[C@H](CC(C)(C)C)CO2 [Compound 286] | – | – | EC50 (Table 12): < 1 µM; Emax [2]: > 60%
Cc1cccc(C)c1-c1cc2nc(n1)NS(=O)(=O)c1cccc(c1)C(=O)N([C@@H](C)c1ccc(-c3cn[nH]c3)cc1)[C@H](CC(C)(C)C)CO2 [Compound 287] | > 60% | – | –
Cc1cccc(C)c1-c1cc2nc(n1)NS(=O)(=O)c1cccc(c1)C(=O)N(Cc1ccc(C3=CCN=N3)cc1)[C@H](CC(C)(C)C)CO2 [Compound 289] | > 60% | – | –
Cc1cccc(C)c1-c1cc2nc(n1)NS(=O)(=O)c1cccc(c1)C(=O)N(Cc1ccc(-c3cc[nH]n3)cc1)[C@H](CC(C)(C)C)CO2 [Compound 290] | – | – | activation at 10 µM [4]: > 60%
Cc1cccc(C)c1-c1cc2nc(n1)NS(=O)(=O)c1cccc(c1)C(=O)N(Cc1ccc(-c3cnoc3)cn1)[C@H](CC(C)(C)C)CO2 [Compound 291] | > 60% | – | –
Cc1cccc(C)c1-c1cc2nc(n1)NS(=O)(=O)c1cccc(c1)C(=O)N(Cc1ccc(-c3c(C)noc3C)cc1)[C@H](CC(C)(C)C)CO2 [Compound 292] | > 60% | – | –
Cc1cccc(C)c1-c1cc2nc(n1)NS(=O)(=O)c1cccc(c1)C(=O)N([C@@H](C)c1ccc(-c3c(C)n[nH]c3C)cc1)[C@H](CC(C)(C)C)CO2 [Compound 293] | > 60% | < 1 µM | –
Cc1cccc(C)c1-c1cc2nc(n1)NS(=O)(=O)c1cccc(c1)C(=O)N(C(C)c1ccc(-c3c(C)n[nH]c3C)cc1)[C@H](CC(C)(C)C)CO2 (some centres unmarked) [Compound 294] | – | – | activation at 10 µM [4]: > 60%
Cc1cccc(C)c1-c1cc2nc(n1)NS(=O)(=O)c1cccc(c1)C(=O)N(Cc1cccc(Cc3nccs3)c1)[C@H](CC(C)(C)C)CO2 [Compound 295] | > 60% | < 1 µM | –
Cc1cccc(C)c1-c1cc2nc(n1)NS(=O)(=O)c1cccc(c1)C(=O)N(Cc1ccc(Cc3nccs3)cc1)[C@H](CC(C)(C)C)CO2 [Compound 296] | > 60% | < 1 µM | –
Cc1cccc(C)c1-c1cc2nc(n1)NS(=O)(=O)c1cccc(c1)C(=O)N(Cc1ccc(-c3c[nH]nc3C3CC3)cn1)[C@H](CC(C)(C)C)CO2 [Compound 297] | > 60% | < 1 µM | –
Cc1cccc(C)c1-c1cc2nc(n1)NS(=O)(=O)c1cccc(c1)C(=O)N(Cc1ccc(-c3c(C)n[nH]c3C)cn1)[C@H](CC(C)(C)C)CO2 [Compound 298] | > 60% | 1 to 3 µM | –
Cc1cccc(C)c1-c1cc2nc(n1)NS(=O)(=O)c1cccc(c1)C(=O)N(Cc1ccc(-c3cn[nH]c3)cn1)[C@H](CC(C)(C)C)CO2 [Compound 299] | > 60% | < 1 µM | –
Cc1cccc(C)c1-c1cc2nc(n1)NS(=O)(=O)c1cccc(c1)C(=O)N(Cc1ncccc1-c1c[nH]nc1C1CC1)[C@H](CC(C)(C)C)CO2 [Compound 300] | – | – | activation at 10 µM [4]: > 60%
Cc1cccc(C)c1-c1cc2nc(n1)NS(=O)(=O)c1cccc(c1)C(=O)N(Cc1ncccc1-c1c(C)n[nH]c1C)[C@H](CC(C)(C)C)CO2 [Compound 301] | > 60% | < 1 µM | –
Cc1cccc(C)c1-c1cc2nc(n1)NS(=O)(=O)c1cccc(c1)C(=O)N(Cc1ccccc1-c1c[nH]nc1C1CC1)[C@H](CC(C)(C)C)CO2 [Compound 303] | > 60% | < 1 µM | –

Structure (SMILES) | Emax [3] | EC50 (Table 10) | also measured
Cc1cccc(C)c1-c1cc2nc(n1)NS(=O)(=O)c1cccc(c1)C(=O)N(Cc1ccccc1-c1c[nH]nc1C(F)(F)F)[C@H](CC(C)(C)C)CO2 [Compound 304] | – | – | activation at 10 µM [4]: > 60%
Cc1cccc(C)c1-c1cc2nc(n1)NS(=O)(=O)c1cccc(c1)C(=O)N(Cc1ccccc1-c1csc(OC(C)C)n1)[C@H](CC(C)(C)C)CO2 [Compound 305] | – | – | activation at 10 µM [4]: > 60%
Cc1cccc(C)c1-c1cc2nc(n1)NS(=O)(=O)c1cccc(c1)C(=O)N(Cc1ccccc1-c1c[nH]nc1C)[C@H](CC(C)(C)C)CO2 [Compound 307] | – | – | activation at 10 µM [4]: > 60%
Cc1cccc(C)c1C1CC2NC(N1)NS(=O)(=O)C1CCCC(C1)C(=O)N(Cc1cccc(-c3c[nH]nc3C(C)(C)C)c1)[C@H](CC(C)(C)C)CO2 (some centres unmarked) [Compound 309] | > 60% | – | –
Cc1cccc(C)c1-c1cc2nc(n1)NS(=O)(=O)c1cccc(c1)C(=O)N(Cc1cccc(-c3c[nH]nc3C)c1)[C@H](CC(C)(C)C)CO2 [Compound 312] | – | – | activation at 10 µM [4]: > 60%
Cc1cccc(C)c1-c1cc2nc(n1)NS(=O)(=O)c1cccc(c1)C(=O)N(Cc1nc(N(C)C)cc(N(C)C)n1)[C@H](CC(C)(C)C)CO2 [Compound 322] | – | – | EC50 (Table 12): < 1 µM; Emax [2]: > 60%
Cc1cc(N(C)C(C)C)nc(CN2C(=O)c3cccc(c3)S(=O)(=O)Nc3nc(cc(-c4c(C)cccc4C)n3)OC[C@H]2CC(C)(C)C)n1 [Compound 323] | – | – | activation at 10 µM [1]: > 600%
Cc1cc(N(C)C)nc(CN2C(=O)c3cccc(c3)S(=O)(=O)Nc3nc(cc(-c4c(C)cccc4C)n3)OC[C@H]2CC(C)(C)C)n1 [Compound 324] | – | – | activation at 10 µM [1]: > 600%
Cc1cccc(C)c1-c1cc2nc(n1)NS(=O)(=O)c1cccc(c1)C(=O)N(Cc1nc(N(C)C)cc(C(F)(F)F)n1)[C@H](CC(C)(C)C)CO2 [Compound 325] | – | – | activation at 10 µM [1]: > 600%
Cc1cccc(C)c1-c1cc2nc(n1)NS(=O)(=O)c1cccc(c1)C(=O)N(Cc1nc(N(C)C(C)C)cc(C(F)(F)F)n1)[C@H](CC(C)(C)C)CO2 [Compound 326] | – | – | activation at 10 µM [1]: > 600%
Cc1cnc(CN2C(=O)c3cccc(c3)S(=O)(=O)Nc3nc(cc(-c4c(C)cccc4C)n3)OC[C@H]2CC(C)(C)C)nc1N1CCCC1(C)C [Compound 327] | – | – | activation at 10 µM [1]: > 600%
Cc1cnc(CN2C(=O)c3cccc(c3)S(=O)(=O)Nc3nc(cc(-c4c(C)cccc4C)n3)OC[C@H]2CC(C)(C)C)nc1N(C)CC(C)(C)C [Compound 328] | – | – | EC50 (Table 12): < 1 µM; Emax [2]: > 60%
Cc1cnc(CN2C(=O)c3cccc(c3)S(=O)(=O)Nc3nc(cc(-c4c(C)cccc4C)n3)OC[C@H]2CC(C)(C)C)nc1N(C)C1CCCC1 [Compound 329] | – | – | activation at 10 µM [1]: > 600%
Cc1cnc(CN2C(=O)c3cccc(c3)S(=O)(=O)Nc3nc(cc(-c4c(C)cccc4C)n3)OC[C@H]2CC(C)(C)C)nc1N(C)C(C)C [Compound 330] | – | – | activation at 10 µM [1]: > 600%
Cc1cccc(C)c1-c1cc2nc(n1)NS(=O)(=O)c1cccc(c1)C(=O)N(Cc1ccc(N3CCOCC3)cn1)C(CC(C)(C)C)CO2 (centres unmarked) [Compound 332] | – | – | activation at 10 µM [5]: < 30%
Cc1cccc(O)c1-c1cc2nc(n1)NS(=O)(=O)c1cccc(c1)C(=O)N(Cc1ccc(N3CCOCC3)cn1)[C@H](CC(C)(C)C)CO2 [Compound 333] | – | – | activation at 10 µM [5]: 30 to 60%
Cc1cccc(C)c1-c1cc2nc(n1)NS(=O)(=O)c1cccc(c1)C(=O)N(Cc1cccc(OC(C)C)n1)[C@H](CC(C)(C)C)CO2 [Compound 370] | – | – | EC50 (Table 13): < 1 µM; Emax [6]: > 60%
Cc1cccc(C)c1-c1cc2nc(n1)NS(=O)(=O)c1cccc(c1)C(=O)N(Cc1nc(N(C)CC(C)(C)C)ccc1F)[C@H](CC(C)(C)C)CO2 [Compound 371] | – | – | EC50 (Table 13): < 1 µM; Emax [6]: > 60%
Cc1cccc(C)c1-c1cc2nc(n1)NS(=O)(=O)c1cccc(c1)C(=O)N(Cc1nc(Br)ccc1F)[C@H](CC(C)(C)C)CO2 [Compound 372] | – | – | activation at 10 µM (Table 13, read-out: HBE Activity at 10 μM (%)): > 600%

Further lines, with some results ahead:

Emax [3] | EC50 (Table 10) | Structure (SMILES) | also measured
> 60% | < 1 µM | Cc1cccc(C)c1-c1cc2nc(n1)NS(=O)(=O)c1cccc(c1)C(=O)N(Cc1ccccc1-c1c(C)n[nH]c1C)[C@H](CC(C)(C)C)CO2 [Compound 306] | –
> 60% | < 1 µM | Cc1cccc(C)c1-c1cc2nc(n1)NS(=O)(=O)c1cccc(c1)C(=O)N(Cc1cccc(-c3c[nH]nc3C3CC3)c1)[C@H](CC(C)(C)C)CO2 [Compound 308] | –
> 60% | < 1 µM | Cc1cccc(C)c1-c1cc2nc(n1)NS(=O)(=O)c1cccc(c1)C(=O)N(Cc1cccc(-c3c(C)n[nH]c3C)c1)[C@H](CC(C)(C)C)CO2 [Compound 313] | –
> 60% | < 1 µM | Cc1cccc(C)c1-c1cc2nc(n1)NS(=O)(=O)c1cccc(c1)C(=O)N(Cc1cccnc1N1CCOCC1)[C@H](CC(C)(C)C)CO2 [Compound 374] | –
> 60% | < 1 µM | Cc1cccc(C)c1-c1cc2nc(n1)NS(=O)(=O)c1cccc(c1)C(=O)N(Cc1cc(N3CCOCC3)ccn1)[C@H](CC(C)(C)C)CO2 [Compound 375] | –
> 60% | < 1 µM | Cc1cccc(C)c1-c1cc2nc(n1)NS(=O)(=O)c1cccc(c1)C(=O)N(Cc1cnccc1N1CCOCC1)[C@H](CC(C)(C)C)CO2 [Compound 376] | –
> 60% | < 1 µM | Cc1cccc(C)c1-c1cc2nc(n1)NS(=O)(=O)c1cccc(c1)C(=O)N(Cc1ncccc1N1CCCCC1)[C@H](CC(C)(C)C)CO2 [Compound 377] | –
> 60% | < 1 µM | COCCNc1cccnc1CN1C(=O)c2cccc(c2)S(=O)(=O)Nc2nc(cc(-c3c(C)cccc3C)n2)OC[C@H]1CC(C)(C)C [Compound 378] | –
